Reference: patent publication US20030017462A1, “Control samples for use as standards for evaluating apoptosis in a selected tissue” (priority 2001, published 2003)
“Also recorded” adds a separate entry of the source.

Test system: thymic tissue
Experiment: Thymic apoptosis in microgravity culture (RCCS bioreactor), TUNEL assay
Type: cell-based, Lewis rats
Conditions: for Percent Area of Stain: 1 μM dexamethasone in culture media, microgravity bioreactor, 37° C.; for Ratio DEX/CON (Percent Area of Stain): 1 μM dexamethasone vs control media
Experimental: The following media and solutions were prepared:
1. Phosphate buffered saline (PBS) for rinsing tissue.
2. Control media, consisting of RPMi 1640 containing 15% heat-inactivated fetal bovine serum, 100 μg/mL penicillin, 100 μg/mL streptomycin, 100 μg/mL L-glutamine, and 2.5 μg/mL amphotericin B.
3. Experimental media, consisting of control media containing 1 μM dexamethasone.
Two microgravity bioreactors (Synthecon, Inc., Houston Tex.) were utilized; one containing control media and one containing experimental media.
The thymus was removed from two Lewis rats, washed in cold PBS to remove blood, and stripped of excess tissue. Thymus tissue was cut into sections of about 3 mm^3, while in cold media.
The bioreactors were filled with control (CON) or experimental (DEX) media. Approximately 24 thymus pieces were placed in each bioreactor, for incubation at 37° C. at a rotation speed appropriate for the size of tissue piece and sedimentation rate, in order to provide constant free-fall. Tissue pieces were removed from each bioreactor every half hour for the first 3 hours, then every hour to the sixth hour, then at hour 10 and hour 24.
Tissue was fixed in 10% neutral buffered formalin or Histochoice™ (Amresco, Inc., Solon Ohio), processed to paraffin and sectioned for histochemical analysis. Formalin-fixed sections were stained with hematoxylin and eosin. Immunohistochemical staining for Lewis Y expression was performed with Histochoice TM fixed samples on a DAKO autostainer, using a monoclonal mouse anti-human Lewis γ antibody (DAKO, Carpinteria Calif.). A peroxidase labeled streptavidin-biotin detection system (Zymed, So. San Francisco Calif.) and diaminobenzidine (DAB) chromagen were used.
In situ labeling of apoptosis was measured by terminal deoxynucleotidyl transferase mediated dUTP nick end labeling (TUNEL) method with a cell death detection kit (Boehringer Mannheim Gmbh, Mannheim, Germany). Using digital image analysis, immunostained sections were analyzed for intensity stain index (ISI=[ΣP0×I0]/total tissue area in pixels), where P0=number of pixels at each intensity and I0=the intensity units (Doolin et al., J. Surg. Res. 59: 191-197, 1995). TUNEL was quantified as total apoptotic cell number divided by total tissue area.

`C[C@@H]1C[C@H]2[C@@H]3CCC4=CC(=O)C=C[C@]4(C)[C@@]3(F)[C@@H](O)C[C@]2(C)[C@@]1(O)C(=O)CO` [DEX, dexamethasone] was tested, and the “Percent Area of Stain” value (time 0 hours) was 6.04%, the “Percent Area of Stain” value (time 3 hours) was 21.68% and the “Percent Area of Stain” value (time 6 hours) was 33.29%. The “Percent Area of Stain” value (time 10 hours) was 43.82%, the “Percent Area of Stain” value (time 24 hours) was 43.30% and the “Effect on rate of apoptosis of thymic tissue” value (1 μM dexamethasone in culture medium, RCCS bioreactor, compared with control culture) was “increases the rate of apoptosis; also recorded: increased the rate of apoptosis up to 10 hours post-initiation”. The “Ratio DEX/CON (Percent Area of Stain)” value (time 0 hours) was 1.00, the “Ratio DEX/CON (Percent Area of Stain)” value (time 3 hours) was 1.46 and the “Ratio DEX/CON (Percent Area of Stain)” value (time 6 hours) was 1.58. For the same molecule, the “Ratio DEX/CON (Percent Area of Stain)” value (time 10 hours) was 1.37, the “Ratio DEX/CON (Percent Area of Stain)” value (time 24 hours) was 0.87 and the “Time to maximum level of apoptosis, as measured by TUNEL” value (thymic tissue in RCCS bioreactor in the presence of dexamethasone (24 hours without)) was 10 h.
